Values joined by “and” are separate entries in the source; they are usually repeats but may differ in a detail not shown here. Equal entries are not always repeated.
Test system: LG0703-F948-PDC complex spheroid viability
Test: Anticancer human tumor LG0703-F948-PDC patient-derived lung adenocarcinoma cell line growth inhibition [RAS]
Details: for viability, T/C: stronger effect = lower value
Outline: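 Agents were tested in combination matrices in half-log decrements from a top concentration at or near clinical Cmax (10 microM if undetermined). Targets were multi-cell spheroids of tumour lines plus HUVEC and MSC stromal cells.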

[1] = curve of first compound, second compound 0.0316 µM
[2] = curve of first compound, second compound 0.1 µM
[3] = curve of first compound, second compound 0.316 µM
[4] = curve of first compound, second compound 1 µM
[5] = second compound 0.0316 µM, first compound 0.0316 µM
[6] = second compound 0.0316 µM, first compound 0.1 µM
[7] = second compound 0.0316 µM, first compound 0.316 µM
[8] = second compound 0.0316 µM, first compound 1 µM
[9] = second compound 0.0316 µM, first compound 3.16 µM
[10] = second compound 0.0316 µM, first compound 10 µM
[11] = second compound 0.1 µM, first compound 0.0316 µM
[12] = second compound 0.1 µM, first compound 0.1 µM
[13] = second compound 0.1 µM, first compound 0.316 µM
[14] = second compound 0.1 µM, first compound 1 µM
[15] = second compound 0.1 µM, first compound 3.16 µM
[16] = second compound 0.1 µM, first compound 10 µM
[17] = second compound 0.316 µM, first compound 0.0316 µM
[18] = second compound 0.316 µM, first compound 0.1 µM
[19] = second compound 0.316 µM, first compound 0.316 µM
[20] = second compound 0.316 µM, first compound 1 µM
[21] = second compound 0.316 µM, first compound 3.16 µM
[22] = second compound 0.316 µM, first compound 10 µM
[23] = second compound 1 µM, first compound 0.0316 µM
[24] = second compound 1 µM, first compound 0.1 µM
[25] = second compound 1 µM, first compound 0.316 µM
[26] = second compound 1 µM, first compound 1 µM
[27] = second compound 1 µM, first compound 3.16 µM
[28] = second compound 1 µM, first compound 10 µM
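Further: spheroids exposed to agents for 7 days.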
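Wherever viability, T/C is given: 100% = DMSO vehicle wells.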

In the case of `C[C@@H](NC(=O)c1ncnc(N)c1Cl)c1ncc(C(=O)Nc2cc(C(F)(F)F)c(Cl)cn2)s1` + C#Cc1c(F)ccc2cc(O)cc(-c3ncc4c(N5CC6CCC(C5)N6)nc(OCC56CCCN5CC(F)C6)nc4c3F)c12, the IC50 [1] is reported as over 10000 nM, the IC50 [2] is reported as over 10000 nM and the IC50 [3] is reported as over 10000 nM. It also gave an IC50 [4] of over 10000 nM, an IC50 (curve of first compound, second compound 3.16 µM) of over 10000 nM and an IC50 (curve of first compound, second compound 10 µM) of over 10000 nM. It also gave a viability, T/C [5] of 108%, a viability, T/C [6] of 92.3% and a viability, T/C [7] of 101%. For the same molecule, the viability, T/C [8] was 96.7%, the viability, T/C [9] was 103% and the viability, T/C [10] was 104%. It also gave a viability, T/C [11] of 87.5%, a viability, T/C [12] of 87.6% and a viability, T/C [13] of 98.3%. For the same molecule, the viability, T/C [14] was 103%, the viability, T/C [15] was 104% and the viability, T/C [16] was 98.3%. For the same molecule, the viability, T/C [17] was 85.8%, the viability, T/C [18] was 76.6% and the viability, T/C [19] was 87.3%. The viability, T/C [20] was 95.4%, the viability, T/C [21] was 109% and the viability, T/C [22] was 99%. It also gave a viability, T/C [23] of 86.7%, a viability, T/C [24] of 74.1% and a viability, T/C [25] of 64.3%. The viability, T/C [26] was 83.5%, the viability, T/C [27] was 73.5% and the viability, T/C [28] was 80%. It also gave a viability, T/C (second compound 3.16 µM, first compound 0.0316 µM) of 63.1%, a viability, T/C (second compound 3.16 µM, first compound 0.1 µM) of 66.3% and a viability, T/C (second compound 3.16 µM, first compound 0.316 µM) of 58.6%. For the same molecule, the viability, T/C (second compound 3.16 µM, first compound 1 µM) was 68%, the viability, T/C (second compound 3.16 µM, first compound 3.16 µM) was 65.4% and the viability, T/C (second compound 3.16 µM, first compound 10 µM) was 66.6%. For the same molecule, the viability, T/C (second compound 10 µM, first compound 0.0316 µM) was 56.8%, the viability, T/C (second compound 10 µM, first compound 0.1 µM) was 60.5% and the viability, T/C (second compound 10 µM, first compound 0.316 µM) was 56.4%. The viability, T/C (second compound 10 µM, first compound 1 µM) was 56.1%, the viability, T/C (second compound 10 µM, first compound 3.16 µM) was 70.9% and the viability, T/C (second compound 10 µM, first compound 10 µM) was 39.5%.

Molecule `CC(C)NCC(C(=O)N1CCN(c2ncnc3c2C(C)CC3O)CC1)c1ccc(Cl)cc1` (stereo unspecified) + C=CC(=O)N1CCN(c2nc(OCC3CCCN3C)nc3c(F)c(-c4nc(N)cc(C)c4C(F)(F)F)c(Cl)cc23)C(C)C1 has an IC50 (curve of first compound, second compound 0.00316 µM) of 577 nM, an IC50 (curve of first compound, second compound 0.01 µM) of 656 nM and an IC50 [1] of 625 nM. The IC50 [2] was 650 nM, the IC50 [3] was 640 nM and the IC50 [4] was 696 nM. It also gave a viability, T/C (second compound 0.00316 µM, first compound 0.0316 µM) of 97%, a viability, T/C (second compound 0.00316 µM, first compound 0.1 µM) of 77.6% and a viability, T/C (second compound 0.00316 µM, first compound 0.316 µM) of 56.9%. It also gave a viability, T/C (second compound 0.00316 µM, first compound 1 µM) of 44.7%, a viability, T/C (second compound 0.00316 µM, first compound 3.16 µM) of 28.1% and a viability, T/C (second compound 0.00316 µM, first compound 10 µM) of 21.6%. It also gave a viability, T/C (second compound 0.01 µM, first compound 0.0316 µM) of 96.4%, a viability, T/C (second compound 0.01 µM, first compound 0.1 µM) of 78.8% and a viability, T/C (second compound 0.01 µM, first compound 0.316 µM) of 56.2%. It also gave a viability, T/C (second compound 0.01 µM, first compound 1 µM) of 46.5%, a viability, T/C (second compound 0.01 µM, first compound 3.16 µM) of 31.6% and a viability, T/C (second compound 0.01 µM, first compound 10 µM) of 20.8%. For the same molecule, the viability, T/C [5] was 100%, the viability, T/C [6] was 79.9% and the viability, T/C [7] was 61.9%. The viability, T/C [8] was 40.4%, the viability, T/C [9] was 33.3% and the viability, T/C [10] was 23.3%. It also gave a viability, T/C [11] of 87.3%, a viability, T/C [12] of 74.6% and a viability, T/C [13] of 62%. The viability, T/C [14] was 42%, the viability, T/C [15] was 31.6% and the viability, T/C [16] was 21.2%. It also gave a viability, T/C [17] of 103%, a viability, T/C [18] of 82% and a viability, T/C [19] of 58.5%. The viability, T/C [20] was 44.2%, the viability, T/C [21] was 29.8% and the viability, T/C [22] was 18.5%. It also gave a viability, T/C [23] of 104%, a viability, T/C [24] of 97% and a viability, T/C [25] of 61.4%. It also gave a viability, T/C [26] of 44.9%, a viability, T/C [27] of 25.8% and a viability, T/C [28] of 15.1%.

`NC1c2ccccc2OC12CCN(c1cnc3c(N4CCCc5ncccc54)n[nH]c3n1)CC2` (stereo unspecified) was tested, and the viability, T/C (compound 0.0316 µM) was 50.5% [middle of 4 runs], the viability, T/C (compound 0.1 µM) was 31.6% [middle of 4 runs] and the viability, T/C (compound 0.316 µM) was 20.4% [middle of 4 runs]. For the same molecule, the viability, T/C (compound 1 µM) was 13.1% [middle of 4 runs], the viability, T/C (compound 3.16 µM) was 5.94% [middle of 4 runs] and the viability, T/C (compound 10 µM) was 2.92% [middle of 4 runs]. For the same molecule, the IC50 (curve of compound) was < 31.6 nM and 59 nM.
